From patent US20190119282A1, “IMIDAZOPYRIDAZINES USEFUL AS INHIBITORS OF THE PAR-2 SIGNALING PATHWAY” (Vertex Pharmaceuticals Incorporated, priority 2013, published 2019)

Tests used:
[1] = target: T1, PAR2 (HT-29 cells, SLIGKV activation) (Homo sapiens, UniProt P55085); assay: Ca FLIPR TETRA assay, ANTAGONIST mode, stimulation with 8 μM SLIGKV; type: cell-based; conditions: HT-29 cells
T1 construct: host or cells: HT-29 cells
T1 sequence (P55085 26-397): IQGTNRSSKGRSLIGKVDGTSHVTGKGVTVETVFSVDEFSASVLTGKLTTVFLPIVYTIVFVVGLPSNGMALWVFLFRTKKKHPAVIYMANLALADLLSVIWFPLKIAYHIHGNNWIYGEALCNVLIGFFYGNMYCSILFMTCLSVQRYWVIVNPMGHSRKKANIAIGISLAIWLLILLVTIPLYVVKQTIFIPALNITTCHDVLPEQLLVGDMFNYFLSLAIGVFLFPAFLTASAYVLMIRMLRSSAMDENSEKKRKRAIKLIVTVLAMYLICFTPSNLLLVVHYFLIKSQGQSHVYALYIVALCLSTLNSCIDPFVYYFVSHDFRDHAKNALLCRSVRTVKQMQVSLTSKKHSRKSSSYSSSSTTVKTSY
Summary of the method: (§1)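 FLIPR Tetra Ca2+ read-out in HT-29 cells, calcium 5 dye. Compound preincubation 30 min r.t., with an initial read for agonist activity. Final activator levels: SLIGKV 8 μM, thrombin 1 U/mL, trypsin 3.1 U/mL, UTP 0.6 μM.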

[2] = target: T2, PAR2 (HT-29 cells, trypsin activation) (Homo sapiens, UniProt P55085); assay: Ca FLIPR TETRA assay, ANTAGONIST mode, stimulation with 3.1 U/mL trypsin; type: cell-based; conditions: HT-29 cells
T2 construct: host or cells: HT-29 cells
T2 sequence (P55085 26-397): T1 sequence (P55085 26-397)
Summary of the method: as §1

[3] = test system: Thrombin-stimulated Ca2+ response in HT-29 cells; assay: Ca FLIPR TETRA assay, ANTAGONIST mode, stimulation with 1 U/mL Thrombin; type: cell-based, human; conditions: Homo sapiens, HT-29 cells
Summary of the method: as §1

[4] = test system: UTP-stimulated Ca2+ response in HT-29 cells; assay: Ca FLIPR TETRA assay, ANTAGONIST mode, stimulation with 0.6 μM UTP; type: cell-based, human; conditions: Homo sapiens, HT-29 cells
Summary of the method: as §1

[5] = stimulation with 3.1 U/mL trypsin
[6] = stimulation with 1 U/mL Thrombin
[7] = antagonist mode, stimulation with 8 μM SLIGKV
[8] = antagonist mode, stimulation with 3.1 U/mL trypsin
[9] = antagonist mode, stimulation with 1 U/mL Thrombin
[10] = antagonist mode, stimulation with 0.6 μM UTP
[11] = antagonist mode, 3.1 U/mL trypsin
[12] = antagonist mode, 1 U/mL Thrombin

Row | SMILES | IC50 [1, 7] [nM] | IC50 [2, 8] [nM] | IC50 [3, 9] [nM] | IC50 [4, 10] [nM] | also measured
1 | CC(C)c1cc(-c2ccc(F)cc2)nn2cc(C(=O)N3CCN(C(=O)C4(N)CCCCC4)[C@@H](C)C3)nc12 [Compound I-156] | – | – | – | – | IC50 ([1]; stimulation with 8 μM SLIGKV): 1400 nM; IC50 [2, 5]: 6800 nM; IC50 [3, 6]: 21000 nM; IC50 ([4]; stimulation with 0.6 μM UTP): 17000 nM
2 | Cc1nnc(C(=O)N2CCN(C(=O)c3cn4nc(-c5ccc(F)c(C)c5)cc(C(C)(C)C)c4n3)C(C)(C)C2)o1 [Compound I-385] | 2.2 | 4.3 | > 1000 | > 1000 | –
3 | CC1(C)CN(C(=O)C2(O)CCC2)CCN1C(=O)c1cn2nc(-c3ccc(F)cc3)cc(C3CC3)c2n1 [Compound I-21, [8-cyclopropyl-6-(4-fluorophenyl)imidazo[1,2-b]pyridazin-2-yl]-[4-(1-hydroxycyclobutanecarbonyl)-2,2-dimethyl-piperazin-1-yl]methanone] | – | – | – | – | IC50 ([1]; stimulation with 8 μM SLIGKV): 19 nM; IC50 [2, 5]: 29 nM; IC50 [3, 6]: > 50000 nM; IC50 ([4]; stimulation with 0.6 μM UTP): 64000 nM
4 | CCC(C)(O)CC(=O)N1CCN(C(=O)c2cn3nc(-c4ccc(F)cc4)cc(C(C)C)c3n2)C[C@@H]1C (stereo partly shown) [Compound I-146] | – | – | – | – | IC50 ([1]; stimulation with 8 μM SLIGKV): 16 nM; IC50 [2, 5]: 1000 nM; IC50 [3, 6]: 20000 nM; IC50 ([4]; stimulation with 0.6 μM UTP): 19000 nM
5 | Cc1ccc(-c2cc(C(C)(C)C)c3nc(C(=O)N4CCN(C(=O)[C@H]5C[C@@](C)(O)C5)CC4(C)C)cn3n2)cc1F [Compound I-415] | 0.3 | 0.5 | > 1000 | > 1000 | –
6 | Cc1nc(C(=O)N2CCN(C(=O)c3cn4nc(-c5ccc(F)cc5)cc(C(C)(C)C)c4n3)C(C)(C)C2)n(COP(=O)(O)O)n1 [Compound I-481] | 47.2 | 44.5 | > 1000 | > 1000 | –
7 | Cc1cc(C(=O)N2CCN(C(=O)c3cn4nc(-c5ccc(F)cc5)cc(C(C)(C)F)c4n3)C(C)(C)C2)[nH]n1 [Compound I-420] | 1.7 | 2.4 | > 1000 | > 1000 | –
8 | CC(C)c1cc(-c2ccc(Cl)cc2)nn2cc(C(=O)N3CCN(C(=O)[C@H]4CC[C@H](C(=O)O)CC4)CC3(C)C)nc12 [Compound I-549] | 27.5 | 57.5 | > 1000 | > 1000 | –
9 | CC(C)c1cc(-c2ccc(F)cc2)nn2cc(C(=O)N3CCN(C(=O)CC(C)(C)C)[C@@H](C)C3)nc12 [Compound I-130] | – | – | – | – | IC50 ([1]; stimulation with 8 μM SLIGKV): 2 nM; IC50 [2, 5]: 6 nM; IC50 [3, 6]: 4500 nM; IC50 ([4]; stimulation with 0.6 μM UTP): 5000 nM
10 | CCc1cc(-c2ccc(F)cc2)nn2cc(C(=O)N3CCN(C(=O)[C@H](O)CC4CC4)[C@@H](C)C3)nc12 [Compound I-170] | – | – | – | – | IC50 ([1]; stimulation with 8 μM SLIGKV): 14 nM; IC50 [2, 5]: 38 nM; IC50 [3, 6]: 33000 nM; IC50 ([4]; stimulation with 0.6 μM UTP): 30000 nM
11 | C[C@H]1CN(C(=O)c2cn3nc(-c4ccc(F)cc4)cc(C(F)(F)F)c3n2)CCN1C(=O)C(O)Cc1ccccc1 (stereo partly shown) [Compound I-92] | – | – | – | – | IC50 ([1]; stimulation with 8 μM SLIGKV): 10 nM; IC50 [2, 5]: 15 nM; IC50 [3, 6]: > 5000 nM; IC50 ([4]; stimulation with 0.6 μM UTP): > 5000 nM
12 | Cc1cccc(-c2cc(C(C)(C)C)c3nc(C(=O)N4CCN(C(=O)c5nc(C)n[nH]5)CC4(C)C)cn3n2)c1 [Compound I-408] | 2.8 | 4.3 | 540 | > 1000 | –
13 | COC(=O)[C@@H]1CCN(C(=O)c2cn3nc(-c4ccc(F)cc4)cc(C(F)(F)F)c3n2)C[C@@H]1C [Compound I-64] | – | – | – | – | IC50 ([1]; stimulation with 8 μM SLIGKV): 110 nM; IC50 [2, 5]: 220 nM; IC50 [3, 6]: 5700 nM; IC50 ([4]; stimulation with 0.6 μM UTP): 42000 nM
14 | CC(C)c1cc(-c2ccc(F)cc2)nn2cc(C(=O)N3CCN(C(=O)C4CC(O)(C(F)(F)F)C4)CC3(C)C)nc12 (stereo not shown) [Compound I-240] | 0.1 | 0.3 | > 1000 | > 1000 | –
15 | Cc1cc(-c2cc(C(C)(C)C)c3nc(C(=O)N4CCN(C(=O)c5ncccn5)CC4(C)C)cn3n2)ccc1F [Compound I-387] | 1.4 | 3.1 | > 1000 | > 1000 | –
16 | Cc1ccc(-c2cc(C(C)(C)C)c3nc(C(=O)N4CCN(C(=O)[C@H]5C[C@@](C)(O)C5)CC4(C)C)cn3n2)cc1 [Compound I-396] | 0.4 | 0.7 | > 1000 | > 1000 | –
17 | CC(C)c1cc(-c2ccc(F)cc2)nn2cc(C(=O)N3CCN(C(=O)CC4CCOC4)[C@@H](C)C3)nc12 (stereo partly shown) [Compound I-145] | – | – | – | – | IC50 ([1]; stimulation with 8 μM SLIGKV): 72 nM; IC50 [2, 5]: 330 nM; IC50 [3, 6]: 24000 nM; IC50 ([4]; stimulation with 0.6 μM UTP): 23000 nM
18 | Cc1nnc(C(=O)N2CCN(C(=O)c3cn4nc(-c5ccc(C(F)(F)F)cc5)cc(C(C)(C)C)c4n3)C(C)(C)C2)o1 [Compound I-400] | 3.6 | 2.8 | > 1000 | > 1000 | –
19 | Cc1cc(-c2cc(C(C)C)c3nc(C(=O)N4CN(Cc5ccccc5)C(=O)C4(C)C)cn3n2)ccc1F [Compound I-442, 3-benzyl-1-[6-(4-fluoro-3-methyl-phenyl)-8-isopropyl-imidazo[1,2-b]pyridazine-2-carbonyl]-5,5-dimethyl-imidazolidin-4-one] | 109 | 150 | > 1000 | > 1000 | –
20 | CC(C)(C)c1cc(-c2ccc(F)c(F)c2)nn2cc(C(=O)N3CCNC(=O)C3(C)C)nc12 [Compound I-352] | 1.2 | 1.5 | > 1000 | > 1000 | –
21 | CC(C)(CC(=O)N1CCN(C(=O)c2cn3nc(-c4ccc(F)cc4)cc(C(C)(C)C)c3n2)C(C)(C)C1)C(=O)O [Compound I-561, 4-(4-(8-(tert-butyl)-6-(4-fluorophenyl)imidazo[1,2-b]pyridazine-2-carbonyl)-3,3-dimethylpiperazin-1-yl)-2,2-dimethyl-4-oxobutanoic acid] | – | – | – | – | IC50 ([1]; antagonist mode, 8 μM SLIGKV): 0.5 nM; IC50 [2, 11]: 0.7 nM; IC50 [3, 12]: > 1000 nM; IC50 ([4]; antagonist mode, 0.6 μM UTP): > 1000 nM
22 | CC(C)(C)c1cc(-c2ccc(Cl)cc2)nn2cc(C(=O)N3CCN(C(=O)c4ccccn4)CC3(C)C)nc12 [Compound I-444] | 0.8 | 1.3 | > 1000 | > 1000 | –
23 | CC(C)c1cc(-c2ccc(Cl)cc2)nn2cc(C(=O)N3CCN(C(=O)[C@H]4C[C@H](C(=O)O)C4)CC3(C)C)nc12 [Compound I-554] | – | – | – | – | IC50 ([1]; antagonist mode, 8 μM SLIGKV): 9.3 nM; IC50 [2, 11]: 11.2 nM; IC50 [3, 12]: > 1000 nM; IC50 ([4]; antagonist mode, 0.6 μM UTP): > 1000 nM
24 | CC(C)c1cc(-c2ccc(C(F)(F)F)cc2)nn2cc(C(=O)N3CCN(C(=O)[C@H]4C[C@](O)(C(F)(F)F)C4)CC3(C)C)nc12 [Compound I-245] | 0.3 | 0.6 | > 1000 | > 1000 | –
25 | CC(C)c1cc(-c2ccc(C(F)F)cc2)nn2cc(C(=O)N3CCNC(=O)C3(C)C)nc12 [Compound I-300] | 27.7 | 26.5 | > 1000 | > 1000 | –
26 | Cc1ncc(C(=O)N2CCN(C(=O)c3cn4nc(-c5ccc(C)c(F)c5)cc(C(C)(C)C)c4n3)C(C)(C)C2)[nH]1 [Compound I-431] | 1.4 | 1.6 | > 1000 | > 1000 | –
27 | Cc1cccc(-c2cc(C(C)(C)C)c3nc(C(=O)N4CCN(C(=O)c5ccccn5)CC4(C)C)cn3n2)c1 [Compound I-411] | 4.8 | 6.5 | 880 | > 1000 | –
28 | CC1(C)CN(C(=O)[C@H]2CC[C@@H](C(=O)O)CC2)CCN1C(=O)c1cn2nc(-c3ccc(F)cc3)cc(-c3ccc(F)cc3)c2n1 [Compound I-524] | 1.4 | 1.7 | > 1000 | > 1000 | –
